From PMC8379681 (Cell reports, 2021)

Molecular target: SPAK (Homo sapiens, UniProt Q9UEW8)
Assay type: biochemical

## Nc1ncnc2occ(-c3ccc(NC(=O)Nc4cc(C(F)(F)F)ccc4F)cc3)c12 [YU252, YU239252]
  IC50: 8.23 µM
